Results published in PubChem BioAssay (NCI).
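These data come from cells grown in 96-well plates and exposed to compound for 48 hours at five concentrations. At the GI50, growth is halved. At the TGI there is no net growth.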

Assays:
Assay in all cases: NCI tumour cell line growth inhibition, 48 h
A549 NSCLC = system: A549 NSCLC
NCI-H226 lung = system: NCI-H226 lung
SF-539 CNS = system: SF-539 CNS
HL-60(TB) leukemia = system: HL-60(TB) leukemia
SK-MEL-5 melanoma = system: SK-MEL-5 melanoma
K-562 leukemia = system: K-562 leukemia
MDA-MB-435 = system: MDA-MB-435
HT29 colon = system: HT29 colon
HOP-62 NSCLC = system: HOP-62 NSCLC
SR leukemia = system: SR leukemia

| Structure (SMILES) | GI50 (A549 NSCLC) | TGI (A549 NSCLC) [µM] | GI50 (NCI-H226 lung) [µM] | TGI (NCI-H226 lung) [µM] | GI50 (SF-539 CNS) [µM] | TGI (SF-539 CNS) [µM] | GI50 (HL-60(TB) leukemia) | TGI (HL-60(TB) leukemia) [µM] | GI50 (SK-MEL-5 melanoma) | TGI (SK-MEL-5 melanoma) [µM] | GI50 (K-562 leukemia) | TGI (K-562 leukemia) [µM] | GI50 (MDA-MB-435) [µM] | TGI (MDA-MB-435) [µM] | GI50 (HT29 colon) | TGI (HT29 colon) [µM] | TGI (HOP-62 NSCLC) [µM] | TGI (SR leukemia) [µM] | GI50 (HOP-62 NSCLC) [µM] | GI50 (SR leukemia) [µM] |
| --- | --- | --- | --- | --- | --- | --- | --- | --- | --- | --- | --- | --- | --- | --- | --- | --- | --- | --- | --- | --- |
| Oc1ccc2oc3ncc(Cl)c(-c4ccccc4)c3c2c1 | > 100 µM | > 100 | > 100 | > 100 | > 100 | > 100 | > 100 µM | > 100 | > 100 µM | > 100 | > 100 µM | > 100 | > 100 | > 100 | > 100 µM | > 100 |  |  |  |  |
| O=C(c1cc(O)ccc1O)c1ccccc1C(Cl)(Cl)Cl |  | > 100 |  | > 100 |  | > 100 |  | 97.3 |  | > 100 |  | > 100 |  |  |  | > 100 | > 100 | > 100 |  |  |
| O=C(CC(=O)N1N=C(c2ccccc2)C(N=Nc2ccc(C(=O)O)cc2)C1=O)Nc1ccc(F)cc1 (centres undefined) |  | > 100 |  | 24 |  | 54.5 |  | 42.9 |  | 46.9 |  | > 100 |  |  |  | > 100 |  |  |  |  |
| C=C(CN1CCN(c2ccccc2OC)CC1)c1ccc(C(=O)Nc2ccccc2N)cc1 | 11.2 µM | 35.5 |  |  | 2.18 | 23.7 | 1.81 µM | > 50 | 2.58 µM | 11.3 | > 50 µM | > 50 | 1.27 | 3.38 |  |  | > 50 |  | 3.27 |  |
| Cn1c2c([N+](=O)[O-])[se]nc2c(=O)n1-c1ccc([N+](=O)[O-])cc1 |  | 20.6 |  | 7.91 |  | 4.49 |  | > 23.1 |  | 14.6 |  | > 100 |  |  |  | 8.12 | 14.2 | 0.271 |  |  |
| CCOC1OCCCC1Br (centres undefined) |  | > 100 |  | > 100 |  | > 100 |  |  |  | > 100 |  | > 100 |  | > 100 |  | > 100 | > 100 | > 100 |  |  |
| NCCCCCS(=O)(=O)O |  | > 100 |  |  |  | > 100 |  | > 100 |  | > 100 |  | > 100 |  |  |  | > 100 | > 100 | > 100 |  |  |
| CC#C[C@@]1(O)CCCC[C@@H]1O |  | > 100 |  | > 100 |  | > 100 |  | > 100 |  | > 100 |  | > 100 |  |  |  | > 100 | > 100 |  |  |  |
| OCC(O)C(O)c1nn(-c2ccccc2)c2nc3cc(Cl)c(Cl)cc3nc12 (centres undefined) |  | 57.4 |  | 73.6 |  | 71 |  | 50.9 |  | > 100 |  | > 100 |  |  |  | 56 | > 100 |  |  |  |
| COC(=O)C1=C(OC)c2cc3c(cc2C(c2cc(OC)c(OC)c(OC)c2)C1C(=O)OC)OCO3 (centres undefined) |  | > 100 |  | > 100 |  | > 100 |  | > 100 |  | > 100 |  | > 100 |  |  |  | > 100 | > 100 | > 100 |  |  |
| Cc1c[nH]c2c1C13CC1CN(C(=O)c1cc4cc(NC(=O)c5cc6ccccc6o5)ccc4[nH]1)C3=CC2=O (centres undefined) | > 1.17 ng/mL |  |  | < 0.001 |  | < 0.001 | > 1.17 ng/mL |  | > 1.17 ng/mL | < 0.001 | > 1.17 ng/mL |  |  |  | > 1.17 ng/mL | 0.143 |  | < 0.001 |  |  |
| c1ccc2c(CNCCCCCCNCc3cccc4ccccc34)cccc2c1 |  | 32.3 |  | 31.6 |  | 3.48 |  | 3.45 |  | 19.9 |  | 3.22 |  |  |  | 5.04 | 30.6 | 4.47 |  |  |
| O=C1C2c3[nH]c4ccccc4c3[C@@H]3CCCCCCCCCCC3C2C(=O)N1c1ccccc1 (some centres undefined) |  | 62.4 |  | 95 |  | 24.3 |  | 30.2 |  | > 100 |  | 29.5 |  |  |  | > 100 |  | 43.3 |  |  |
| CC1=NNC(=NCCN(C)C)C/C1=C/c1ccccc1Cl |  | > 100 |  |  |  | > 100 |  |  |  | > 100 |  |  |  |  |  | > 100 | > 100 |  |  |  |
| CCN(CC)CCN1C(=O)c2c(c(C)c3c(oc4cc(O)ccc43)c2C)C1=O | 2.05 µM | 4.68 | 2.06 | 4.38 | 1.68 | 3.05 |  |  | 1.56 µM | 2.92 | 2.3 µM | > 100 | 1.57 | 3.08 | 2.14 µM | 5.41 | 4.84 | > 100 | 2.06 | 1.89 |
| COc1ccc2c(c1)CCC1C2CC[C@@]2(C)C1CC[C@@]2(O)CNC(=O)/C=C/c1ccc(O)c(OC)c1 (some centres undefined) | 22.3 µM | > 100 | 22.5 | 74.6 |  | 19.3 | 8.46 µM | > 100 | 18.2 µM | 46.6 | 12.3 µM | > 100 | 4.95 | > 100 | 2.8 µM | 10.8 | > 100 |  | 31.8 |  |
| Nc1nc2c(ncn2C2OC(CO)C(O)C2N)c(=O)[nH]1 (centres undefined) |  | > 100 |  |  |  | > 100 |  | > 100 |  |  |  | > 100 |  |  |  | > 100 | > 100 |  |  |  |
| S=c1nc(-c2ccccc2)oc(=NC2CCCCC2)n1C1CCCCC1 | 2.26 µM | 8.21 | 17.5 | 37.9 | 5.73 | 20.4 | 1.9 µM | 5.29 | 2.62 µM | 9.87 | 5.25 µM | > 100 | 3.36 | 8.82 | 4.1 µM | 14.8 | 23.1 |  | 5.9 |  |
| COc1ccc(SC2c3cc(OC)c(OC)cc3Oc3nc(N)c(C#N)c(N)c32)cc1 (centres undefined) |  |  | 1.37 | 2.68 | 1.38 | 2.68 |  |  | 1.5 µM | 2.82 |  |  | 1.5 | 2.92 | 2.16 µM | 5.04 | 3.09 |  | 1.7 |  |
| COC(=O)c1c[nH]c(=O)[nH]c1=O |  | > 100 |  |  |  | > 100 |  |  |  | > 100 |  | > 100 |  | > 100 |  |  |  | > 100 |  |  |
| N#Cc1cccc(NC(=O)c2ccc(C(=O)O)c(C(=O)c3ccc(C(=O)O)c(C(=O)Nc4cccc(C#N)c4)c3)c2)c1 |  | > 100 |  | > 100 |  | > 100 |  | > 100 |  | > 100 |  | > 100 |  |  |  | > 100 | > 100 |  |  |  |
